Data as given in patent US20070213257A1, “COMPOSITIONS AND METHODS FOR COMPLEXES OF NUCLEIC ACIDS AND PEPTIDES” (Nastech Pharmaceutical Company Inc., priority 2005, published 2007).
Like-named read-outs stand apart in the source and are kept apart here.

How the values were obtained:
PN73 = PN73 (Homo sapiens, UniProt P62807); test: SEC-UV/LS: effect of organic salt on PN73 aggregation; type: physicochemical; settings: 100 mM salt, without LC20 siRNA
Protocol: (§1) In this example, size exclusion chromatography (SEC) coupled with an ultraviolet detector (UV 260nm) and static laser light scattering (LS) detector was used to characterize the physical properties of the LC20 siRNA/PN73 peptide complex in the presence or absence of the organic salt. In addition, the phosphate/nitrogen (P/N) charge ratio for LC20 siRNA/PN73 was calculated.
PN73 in monomeric form is 4 kiloDaltons (kDA); however an intrinsic property of this peptide is to aggregate and form large complexes in solution. An initial study was performed to analyze the physical properties of PN73, without LC20 siRNA, in the presence and absence of 100 mM NMDG-glutamate salt or 9% sorbitol (no salt environment). […] In contrast, in the presence of 100 mM NMDG-glutamate salt, two distinct adjacent UV traces were observed indicating two distinct species of PN73 were present. […] Next, the ability of NMDG-glutamate and other organic salts to reduced PN73 aggregation in the presence of LC20 siRNA was characterized by SEC-UV/LS.

LC20 siRNA/PN73 complex = LC20 siRNA/PN73 complex (Homo sapiens, UniProt P62807)
Chain of LC20 siRNA/PN73 complex (P62807 13-48 limits assumed, one chain of several): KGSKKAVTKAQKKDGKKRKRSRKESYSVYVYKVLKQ
Protocol: as §1
LC20 siRNA/PN73 aggregation was characterized in the presence or absence of NMDG-glutamate by SEC-UV/LS.

Chain of PN73 (P62807 13-48): as the sequence (P62807 13-48 limits assumed, one chain of several) above

| Compound | effect on PN73 aggregation (PN73) | stabilization of LC20 siRNA/PN73 complex in solution (LC20 siRNA/PN73 complex; 1 mM salt) | stabilization of LC20 siRNA/PN73 complex in solution (LC20 siRNA/PN73 complex; 10 mM salt) | stabilization of LC20 siRNA/PN73 complex in solution (LC20 siRNA/PN73 complex; 100 mM salt) | stabilization of LC20 siRNA/PN73 complex in solution (LC20 siRNA/PN73 complex; 150 mM salt) |
| --- | --- | --- | --- | --- | --- |
| CNC[C@H](O)[C@@H](O)[C@H](O)[C@H](O)CO.N[C@@H](CCC(=O)O)C(=O)O [NMDG-glutamate, N-methyl-D-glucamine (NMDG)] | reduces PN73 aggregation significantly | effective stabilizer | effective stabilizer | effective stabilizer |  |
| N=C(N)NCCC[C@H](N)C(=O)O [arginine glutamate, arginine] |  | effective stabilizer | effective stabilizer | effective stabilizer | not an effective stabilizer |
| NCCCNCCCCNCCCN [spermine acetate, spermine] |  | effective LC20 siRNA/PN73 stabilizer | effective LC20 siRNA/PN73 stabilizer | dissociates the LC20 siRNA/PN73 peptide complex |  |
| trimethylethanolamine (Choline) [choline chloride] |  | may not be suitable as a stabilizer | may not be suitable as a stabilizer | may not be suitable as a stabilizer |  |
